Measured values from PMC9232501, “Results of the phase I CCTG IND.231 trial of CX-5461 in patients with advanced solid tumors enriched for DNA-repair deficiencies” (Nature Communications, 2022).
Where two headings read alike, the source gives them in different places.

Experiment: Plasma pharmacokinetics of CX-5461 (HPLC-MS/MS, non-compartmental)
Assay type: in vivo, human
Details: plasma; for concentration at 48 h / concentration at 72 h / concentration at 0.5 h / concentration at 1 h / concentration at 4 h / concentration at 6 h / concentration at 0 h / concentration at 2 h / concentration at 24 h: individual patients, read-out: Day 1 CX-5461 plasma concentration
Protocol: PK was assessed on all patients in the escalation phase. Venous blood samples were collected on treatment days 1, 8, and 15 (where applicable), and plasma CX-5461 was analyzed with HPLC-MS/MS (schedule details in Supplementary Table 3). PK parameters were calculated with non-compartmental methods. […] The protocol was amended to allow submission of a ctDNA sample and in a further amendment, a mandatory skin biopsy (pre-treatment and cycle 1 day 15) to study phototoxic effects. Fresh tumor biopsies were optional.
Supplementary Table 3. Schedule for collection of CX5461 pharmacokinetics
During infusion at 30 minutes
Immediately post infusion then:
C1D1 30 minutes post infusion
C1D2 24 hours post infusion
C1D3 48 hours post infusion
C1D4 72 hours post infusion
Immediately post infusion then
C1D15 30 minutes post infusion
C1D16 24 hours post infusion
In addition to the specific time points listed above, additional samples were to be collected from […]

[1] = human, intravenous, 50 mg/m2, 50 mg/m2
[2] = human, intravenous, 100 mg/m2, 100 mg/m2
[3] = human, intravenous, 150 mg/m2, 150 mg/m2
[4] = human, intravenous, 200 mg/m2, 200 mg/m2
[5] = human, intravenous, 250 mg/m2, 250 mg/m2
[6] = human, intravenous, 325 mg/m2, 325 mg/m2
[7] = human, intravenous, 325 mg/m2, B: 325 mg/m2
[8] = human, intravenous, 475 mg/m2, 475 mg/m2
[9] = human, intravenous, 475 mg/m2, B: 475 mg/m2
[10] = human, intravenous, 650 mg/m2, 650 mg/m2

Cc1cnc(CNC(=O)c2c(=O)c3ccc(N4CCCN(C)CC4)nc3n3c2sc2ccccc23)cn1 [CX-5461]
concentration at 48 h [1]: 0.0248 µg/mL
concentration at 72 h [1]: 0.0133 µg/mL
AUC (human, intravenous, 50 mg/m2, Dose level 50 (mg/m2), one patient per datapoint, read-out: Day 1 AUC): 3.24 µg·h/mL
concentration at 0.5 h [2]: 0.141 µg/mL
concentration at 1 h [2]: 0.115 µg/mL
concentration at 4 h [2]: 0.103 µg/mL
concentration at 6 h [2]: 0.0832 µg/mL
concentration at 48 h [2]: 0.0447 µg/mL
concentration at 72 h [2]: 0.02 µg/mL
AUC (human, intravenous, 100 mg/m2, Dose level 100 (mg/m2), one patient per datapoint, read-out: Day 1 AUC): 5.24 µg·h/mL
Cmax (human, intravenous, 100 mg/m2, Dose level 100 (mg/m2), one patient per datapoint, read-out: Day 8 or 15 Cmax): 1.14 µg/mL
concentration at 0 h [3]: 0.465 µg/mL
concentration at 0.5 h [3]: 0.32 µg/mL
concentration at 2 h [3]: 0.206 µg/mL
concentration at 4 h [3]: 0.2 µg/mL
concentration at 6 h [3]: 0.179 µg/mL
Cmax (human, intravenous, 150 mg/m2, Dose level 150 (mg/m2), one patient per datapoint, read-out: Day 1 Cmax): 0.465 µg/mL
AUC (human, intravenous, 150 mg/m2, Dose level 150 (mg/m2), one patient per datapoint, read-out: Day 8 or 15 AUC): 19.6 µg·h/mL
concentration at 24 h [4]: 0.0728 µg/mL
concentration at 72 h [4]: 0.0314 µg/mL
concentration at 0 h [5]: 0.867 µg/mL
concentration at 0.5 h [5]: 0.42 µg/mL
concentration at 1 h [5]: 0.423 µg/mL
concentration at 2 h [5]: 0.369 µg/mL
concentration at 4 h [5]: 0.233 µg/mL
concentration at 24 h [5]: 0.197 µg/mL
concentration at 48 h [5]: 0.106 µg/mL
concentration at 72 h [5]: 0.0854 µg/mL
AUC (human, intravenous, 250 mg/m2, Dose level 250 (mg/m2), one patient per datapoint, read-out: Day 1 AUC): 12.4 µg·h/mL
AUC (human, intravenous, 250 mg/m2, Dose level 250 (mg/m2), one patient per datapoint, read-out: Day 8 or 15 AUC): 19 µg·h/mL
concentration at 0 h [6]: 1.31 µg/mL
concentration at 0.5 h [6]: 0.446 µg/mL
concentration at 1 h [6]: 0.4 µg/mL
concentration at 2 h [6]: 0.395 µg/mL
concentration at 4 h [6]: 0.244 µg/mL
concentration at 6 h [6]: 0.291 µg/mL
concentration at 24 h [6]: 0.232 µg/mL
concentration at 48 h [6]: 0.138 µg/mL
concentration at 72 h [6]: 0.11 µg/mL
concentration at 1 h [7]: 0.297 µg/mL
concentration at 2 h [7]: 0.308 µg/mL
concentration at 4 h [7]: 0.252 µg/mL
concentration at 6 h [7]: 0.271 µg/mL
concentration at 48 h [7]: 0.203 µg/mL
concentration at 72 h [7]: 0.107 µg/mL
AUC (human, intravenous, 325 mg/m2, Dose level 325 (mg/m2), one patient per datapoint, read-out: Day 1 AUC): 15 µg·h/mL
Cmax (human, intravenous, 325 mg/m2, Dose level 325 (mg/m2), one patient per datapoint, read-out: Day 1 Cmax): 1.31 µg/mL
AUC (human, intravenous, 325 mg/m2, Dose level 325 (mg/m2), one patient per datapoint, read-out: Day 8 or 15 AUC): 24.6 µg·h/mL
Cmax (human, intravenous, 325 mg/m2, Dose level 325 (mg/m2), one patient per datapoint, read-out: Day 8 or 15 Cmax): 1.44 µg/mL
AUC (human, intravenous, 325 mg/m2, Dose level B: 325 (mg/m2), one patient per datapoint, read-out: Day 1 AUC): 25.2 µg·h/mL
Cmax (human, intravenous, 325 mg/m2, Dose level B: 325 (mg/m2), one patient per datapoint, read-out: Day 1 Cmax): 0.822 µg/mL
concentration at 0 h [8]: 1.54 µg/mL
concentration at 0.5 h [8]: 0.475 µg/mL
concentration at 1 h [8]: 0.48 µg/mL
concentration at 2 h [8]: 0.445 µg/mL
concentration at 4 h [8]: 0.293 µg/mL
concentration at 6 h [8]: 0.274 µg/mL
concentration at 24 h [8]: 0.242 µg/mL
concentration at 48 h [8]: 0.14 µg/mL
concentration at 72 h [8]: 0.104 µg/mL
concentration at 0.5 h [9]: 0.89 µg/mL
concentration at 1 h [9]: 0.698 µg/mL
concentration at 4 h [9]: 0.424 µg/mL
concentration at 48 h [9]: 0.336 µg/mL
concentration at 72 h [9]: 0.219 µg/mL
AUC (human, intravenous, 475 mg/m2, Dose level 475 (mg/m2), one patient per datapoint, read-out: Day 1 AUC): 15.8 µg·h/mL
Cmax (human, intravenous, 475 mg/m2, Dose level 475 (mg/m2), one patient per datapoint, read-out: Day 1 Cmax): 1.85 µg/mL
Cmax (human, intravenous, 475 mg/m2, Dose level 475 (mg/m2), one patient per datapoint, read-out: Day 8 or 15 Cmax): 1.68 µg/mL
Cmax (human, intravenous, 475 mg/m2, RP2D 475 mg/m^2 d1,8,15, read-out: average day 1 Cmax): 1.75 ± 0.801 µg/mL
Cmax (human, intravenous, 475 mg/m2, RP2D 475 mg/m^2 d1,8,15, read-out: day 15 Cmax): 2.87 ± 2.31 µg/mL
half-life (human, intravenous, 475 mg/m2, RP2D 475 mg/m^2 d1,8,15, read-out: elimination half-life (t1/2), day 1 (converted)): 61.5 ± 15.5 h
half-life (human, intravenous, 475 mg/m2, RP2D 475 mg/m^2 d1,8,15, read-out: elimination half-life (t1/2), day 15 (converted)): 59 ± 11.2 h
concentration at 14 days (human, intravenous, 475 mg/m^2, 14 days after the prior dose, read-out: mean trough plasma level prior to cycle 2 day 1): 0.0491 ± 0.0345 µg/mL
concentration at 0 h [10]: 0.953 µg/mL
concentration at 0.5 h [10]: 1.04 µg/mL
concentration at 2 h [10]: 0.712 µg/mL
concentration at 4 h [10]: 0.495 µg/mL
concentration at 48 h [10]: 0.222 µg/mL
AUC (human, intravenous, 650 mg/m2, Dose level 650 (mg/m2), one patient per datapoint, read-out: Day 1 AUC): 26.8 µg·h/mL
elimination: eliminated slowly
